Experimental data from patent publication US20170253601A1, “Substituted Pyrrolidine Compounds” (EPIZYME, INC., priority 2014, published 2017).

Biological target: T1, SMYD2 (Homo sapiens, UniProt Q9NRG4)
T1 construct: Full length SMYD2 (NP 064582.2) was cloned; His6 (N, cleaved yes); FLAG (N); made in house; host or cells: Sf9 insect cells
Test: SMYD2 Biochemical Assay (3H-SAM, biotinylated peptide substrate, Flashplate)
Settings: IC50 values are an average of n = 1 to n = 50; read-out: SMYD2 Biochem IC50 (μM)*
Outline: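 Methyltransferase activity tracked as 3H transfer from 10 nM 3H-SAM to 60 nM biotinylated peptide, counted after streptavidin Flashplate capture and normalised to DMSO and 1000 uM SAH controls. Enzyme: 1.5 nM full-length Sf9-expressed SMYD2, 30 min compound pre-incubation at room temperature, in Bicine pH 7.6 buffer with 2% DMSO; reactions quenched with 600 uM unlabelled SAM; IC50 from 3- or 4-parameter fit.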

T1 sequence (Q9NRG4 whole entry): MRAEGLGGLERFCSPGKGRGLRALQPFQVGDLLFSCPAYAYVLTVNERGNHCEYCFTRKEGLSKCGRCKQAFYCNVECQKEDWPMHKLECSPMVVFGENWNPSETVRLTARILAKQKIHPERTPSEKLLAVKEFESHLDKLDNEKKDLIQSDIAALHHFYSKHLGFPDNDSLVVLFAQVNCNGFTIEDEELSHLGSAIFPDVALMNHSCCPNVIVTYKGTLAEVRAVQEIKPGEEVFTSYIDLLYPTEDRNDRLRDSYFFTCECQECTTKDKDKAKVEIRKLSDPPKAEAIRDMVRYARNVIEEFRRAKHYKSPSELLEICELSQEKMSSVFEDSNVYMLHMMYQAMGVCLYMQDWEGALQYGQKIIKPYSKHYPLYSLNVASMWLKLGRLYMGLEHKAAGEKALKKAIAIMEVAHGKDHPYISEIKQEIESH

IC50	SMILES
> 50 µM	C[C@H]1CN(CC(F)F)C[C@H]1NC(=O)c1cc(C2CC2)on1 (racemic) [compound 216, (±)-cis-5-cyclopropyl-N-[1-(2,2-difluoroethyl)-4-methylpyrrolidin-3-yl]-1,2-oxazole-3-carboxamide]
> 50 µM	C[C@H]1CN(c2cccnc2)C[C@H]1NC(=O)c1cc(C2CC2)on1 (racemic) [compound 336, (±)-cis-5-cyclopropyl-N-[4-methyl-1-(pyridin-3-yl)pyrrolidin-3-yl]-1,2-oxazole-3-carboxamide]
> 50 µM	C[C@H]1CN(Cc2c(Br)cncc2Br)C[C@H]1NC(=O)c1cc(C2CC2)on1 (racemic) [compound 231, (±)-cis-5-cyclopropyl-N-[1-[(3,5-dibromo-pyridin-4-yl)methyl]-4-methylpyrrolidin-3-yl]-1,2-oxazole-3-carboxamide]
> 50 µM	C[C@@H]1CN(c2cccnc2)C[C@H]1NC(=O)c1cc(C2CC2)on1 (racemic) [compound 309, (±)-trans-5-cyclopropyl-N-[4-methyl-1-(pyridin-3-yl)pyrrolidin-3-yl]-1,2-oxazole-3-carboxamide]
4.89 µM	C[C@H]1CN(Cc2cccc3[nH]ncc23)C[C@H]1NC(=O)c1cc(C2CC2)on1 (racemic) [compound 265, (±)-cis-5-cyclopropyl-N-[1-(1H-indazol-4-ylmethyl)-4-methylpyrrolidin-3-yl]-1,2-oxazole-3-carboxamide]
> 50 µM	C[C@H]1CN(c2ccncn2)C[C@H]1NC(=O)c1cc(C2CC2)on1 (racemic) [compound 340, (±)-cis-5-cyclopropyl-N-[4-methyl-1-(pyrimidin-4-yl)pyrrolidin-3-yl]-1,2-oxazole-3-carboxamide]
21.1 µM	C[C@H]1CN(Cc2c[nH]c(-c3ccccc3)n2)C[C@H]1NC(=O)c1cc(C2CC2)on1 (racemic) [compound 288, (±)-cis-5-cyclopropyl-N-{4-methyl-1-[(2-phenyl-1H-imidazol-4-yl)methyl]pyrrolidin-3-yl}-1,2-oxazole-3-carboxamide]
> 50 µM	C[C@@H]1CN(Cc2ccnn2C)C[C@H]1NC(=O)c1cc(C2CC2)on1 (racemic) [compound 184, (±)-trans-5-cyclopropyl-N-[4-methyl-1-[(1-methyl-1H-pyrazol-5-yl)methyl]pyrrolidin-3-yl]-1,2-oxazole-3-carboxamide]
> 50 µM	C[C@H]1CN(CC(F)(F)F)C[C@H]1NC(=O)c1cc(C2CC2)on1 (racemic) [compound 262, (±)-cis-5-cyclopropyl-N-[4-methyl-1-(2,2,2-trifluoroethyl)pyrrolidin-3-yl]-1,2-oxazole-3-carboxamide]
3.63 µM	COc1ccc(CN2C[C@H](C)[C@H](NC(=O)c3cc(C4CC4)on3)C2)cc1 (racemic) [compound 228, (±)-cis-5-cyclopropyl-N-[1-[(4-methoxy-phenyl)methyl]-4-methylpyrrolidin-3-yl]-1,2-oxazole-3-carboxamide]
27.5 µM	C[C@@H]1CN(Cc2ccccc2Cl)C[C@H]1NC(=O)c1cc(C2CC2)on1 (racemic) [compound 142, (±)-trans-N-1-[(2-chlorophenyl)methyl]-4-methylpyrrolidin-3-yl]-5-cyclopropyl-1,2-oxazole-3-carboxamide]
> 50 µM	C[C@H]1CN(c2ccc(Cl)cc2)C[C@H]1NC(=O)c1cc(C2CC2)on1 (racemic) [compound 273, (±)-cis[N-[1-(4-chloro-phenyl)-4-methyl-pyrrolidin-3-yl]-5-cyclopropyl-1,2-oxazole-3-carboxamide]

Further lines, the molecule ahead of its results:

SMILES	IC50
CC(C)N1C[C@@H](C(F)(F)F)[C@H](NC(=O)c2cc(C3CC3)on2)C1 (racemic) [compound 252, (±)-trans-5-cyclopropyl-N-[1-(propan-2-yl)-4-(trifluoromethyl)pyrrolidin-3-yl]-1,2-oxazole-3-carboxamide]	> 50 µM
CC(C)c1cc(C(=O)N[C@@H]2C[C@@H](CNC(=O)C3CCCCC3)N(C3CC3)C2)no1 (stereo in doubt) [compound 243, (±)-trans-N-[5-[(cyclo-hexylformamido)methyl]-1-cyclopropylpyrrolidin-3-yl]-5-(propan-2-yl)-1,2-oxazole-3-carboxamide]	> 50 µM
C[C@@H]1CN(CC(=O)N(C)C)C[C@H]1NC(=O)c1cc(C2CC2)on1 (racemic) [compound 277, (±)-trans-5-cyclopropyl-N-{1-[(dimethyl-carbamoyl)methyl]-4-methylpyrrolidin-3-yl}-1,2-oxazole-3-carboxamide]	> 50 µM
CC(C)N1C[C@@H](NC(=O)c2cc(C3CC3)on2)[C@@](C)(O)C1 (racemic) [compound 241, (±)-cis-5-cyclopropyl-N-[4-hydroxy-4-methyl-1-(propan-2-yl)pyrrolidin-3-yl]-1,2-oxazole-3-carboxamide]	24.8 µM
CC[C@H]1CN(C)C[C@@H]1NC(=O)c1cc(C2CC2)on1 (racemic) [compound 157, (±)-trans-5-cyclopropyl-N-[4-ethyl-1-methyl-pyrrolidin-3-yl]-1,2-oxazole-3-carboxamide]	45.3 µM
COC(=O)CN1C[C@H](C)[C@H](NC(=O)c2cc(C3CC3)on2)C1 (racemic) [compound 221, (±)-cis-methyl 2-[3-(5-cyclopropyl-1,2-oxazole-3-amido)-4-methylpyrrolidin-1-yl]acetate]	> 50 µM
CC(C)c1cc(C(=O)N[C@@H]2CN(C(C)C)C[C@@H]2C)no1 (racemic) [compound 193, (±)-cis-N-[4-methyl-1-(propan-2-yl)pyrrolidin-3-yl]-5-(propan-2-yl)-1,2-oxazole-3-carboxamide]	7.85 µM
C[C@@H]1CN(c2ncccn2)C[C@H]1NC(=O)c1cc(C2CC2)on1 (racemic) [compound 315, (±)-trans-5-cyclopropyl-N-[4-methyl-1-(pyrimidin-2-yl)pyrrolidin-3-yl]-1,2-oxazole-3-carboxamide]	> 50 µM
C[C@@H]1CN(CC(=O)N2CCNCC2)C[C@H]1NC(=O)c1cc(C2CC2)on1 (racemic) [compound 311, (±)-trans-5-cyclopropyl-N-{4-methyl-1-[2-oxo-2-(piperazin-1-yl)ethyl]pyrrolidin-3-yl}-1,2-oxazole-3-carboxamide]	> 50 µM
CC(C)N1C[C@H](C)[C@H](NC(=O)c2cc(C3(C)CCC3)on2)C1 (racemic) [compound 260, (±)-cis-N-[4-methyl-1-(propan-2-yl)pyrrolidin-3-yl]-5-(1-methyl-cyclobutyl)-1,2-oxazole-3-carboxamide]	> 50 µM
C[C@H]1CN(CC(=O)N2CCOCC2)C[C@H]1NC(=O)c1cc(C2CC2)on1 (racemic) [compound 270, (±)-cis-5-cyclopropyl-N-[4-methyl-1-[2-(morpholin-4-yl)-2-oxoethyl]pyrrolidin-3-yl]-1,2-oxazole-3-carboxamide]	> 50 µM

Same assay, conditions: Table 1; average of n = 1 to n = 50; read-out: SMYD2 Biochem IC50

IC50	SMILES
> 50 µM	C[C@@H]1CNC[C@H]1NC(=O)c1cc(C2CC2)on1 (racemic) [compound 43, (±)-trans-5-cyclopropyl-N-(4-methyl-pyrrolidin-3-yl)isoxazole-3-carboxamide]

Same assay, conditions: Table 2; average of n = 1 to n = 50; read-out: SMYD2 Biochem IC50

IC50	SMILES
> 50 µM	C[C@@H]1CN(CCN)C[C@H]1NC(=O)c1cc(C2CC2)on1 (racemic) [compound 101, (±)-trans-N-(1-(2-aminoethyl)-4-methylpyrrolidin-3-yl)-5-cyclopropylisoxazole-3-carboxamide]
> 50 µM	C[C@@H]1CN(C(=O)CN)C[C@@H]1NC(=O)c1cc(C2CC2)on1 (racemic) [compound 68, (±)-cis-5-cyclopropyl-N-(1-glycyl-4-methylpyrrolidin-3-yl)isoxazole-3-carboxamide]
> 50 µM	C[C@@H]1CN(C2CCN(C)CC2)C[C@H]1NC(=O)c1cc(C2CC2)on1 (racemic) [compound 105, (±)-trans-5-cyclopropyl-N-((3S,4R)-4-methyl-1-(1-methylpiperidin-4-yl)pyrrolidin-3-yl)isoxazole-3-carboxamide]

Test system: esophageal, liver and breast cancer cell lines
Test: not given
Settings: several esophageal, dose-dependent; cited from earlier work

SMILES	inhibition of proliferation of cancer cell lines
Cc1cn(CCN2CCN(c3ccccc3-c3cc(C#N)cc(C(=O)NCCCN4CCCC4)c3)CC2)c2ccccc12 [LLY-507]	inhibited the proliferation
